Entries after “also recorded” stand apart in the source; their conditions may differ. Marks after values point to notes of the source that are not given here.
Columns and labels:
[1] = test system: Heterorhabditis bacteriophora, H. zealandica, H. floridensis; assay: Ascaroside function (Table 12); assay type: in vivo, Heterorhabditis spp.; details: for predicted function in Heterorhabditis: alone, in concert, and/or in concert with ascr#9 or other ascarosides; for Dispersal (of dauer larvae, infectious juveniles) / Repel Females/Herm.: entries with asterisk (predicted)
Protocol: (§1) Ascarosides ascr#10, ascr#16, ascr#18, ascr#20, and ascr#22 were detected in certain species of Meloidogyne plant parasitic nematodes (FIG. 83) and identified using high-resolution mass spectrometry (FIGS. 84-88).
(§2) Various ascarosides and ascaroside blends were administered to various nematodes described below (Table 12). […] A very strong result of affecting nematode behavior is designated in the table as “strong.”

[2] = test system: Meloidogyne javanica, M. floridensis, M. incognita, M. hapla; assay: Ascaroside function (Table 12); assay type: in vivo, Meloidogyne spp.; details: for predicted function in Meloidogyne species: alone, in concert, and/or in concert with ascr#9 or other ascarosides; for Dispersal (of dauer larvae, infectious juveniles) / Repel Females/Herm.: entries with asterisk (predicted)
Protocol: as §1, §2

C. elegans [3] = assay: Spot attraction assay; assay type: in vivo
Protocol: The spot attraction assays were conducted according to a previously reported method (Pungaliya et al., PNAS 106:7708-13 (2009); Srinivasan et al., Nature 454:1115-18 (2008), which are hereby incorporated by reference in their entirety). For both C. elegans hermaphrodites and males, 50-60 worms were harvested daily at the fourth larval stage (L4) and stored segregatedly by sex at 20° C. overnight, to be used as young adults the following day. For the competition experiments, two conditions were used: 120 nM ascr#3 and 10 nM icas#3 (Condition 1), or 12 μM ascr#3 and 1 μM icas#3 (Condition 2) in water containing 10% ethanol. Aliquots were stored at −20° C. in 20 μL tubes. 10% ethanol in water was used as control.
Attraction assays with hbas#3 were conducted as previously reported (Srinivasan et al., Nature 454:1115-18 (2008); Pungaliya et al., Proc. Natl. Acad. Sci. U.S.A. 106:7708-13 (2009), which are hereby incorporated by reference in their entirety). For the attraction assays, 50-60 hermaphrodite worms were harvested daily at the early fourth larval stage (L4) and stored at 20° C. overnight to be used as young adults the following day. Hbas#3 was dissolved in water containing 10% ethanol. Aliquots were stored at −20° C. in 20 μL tubes. 10% ethanol in water was used as control.

C. elegans [4] = assay: Ascaroside function (Table 12); assay type: in vivo, Caenorhabditis elegans; parameters: key to Attract Females/Herm. / Promote Dauer Formation / Attract Males: A very strong result of affecting nematode behavior is designated in the table as “strong.”; details: listed = has this function
Protocol: as §2

C. elegans [5] = assay: Quadrant chemotaxis assay; assay type: in vivo; details: FIGS. 48A-B; wild-type hermaphrodites
Protocol: Chemotaxis to both non-indole and indole ascarosides was assessed on 10 cm four-quadrant petri plates (Wicks et al., Dev. Biol. 221:295-307 (2000), which is hereby incorporated by reference in its entirety). Each quadrant was separated from adjacent ones by plastic spacers (FIG. 1B). Pairs of opposite quadrants were filled with nematode growth medium (NGM) agar containing either indole ascarosides or non-indole ascarosides at different concentrations. Animals were washed gently in a S-basal buffer, placed in the center of a four-quadrant plate with ascarosides in alternating quadrants, and scored after 15 minutes and 30 minutes. A chemotaxis index was calculated as: (the number of animals on ascaroside quadrants minus the number of animals on buffer quadrants)/(total number of animals).
Chemotaxis to hbas#3 was assessed on 10 cm four-quadrant petri plates (Wicks et al., Dev. Biol. 221:295-307 (2000), which is hereby incorporated by reference in its entirety). Each quadrant was separated from adjacent ones by plastic spacers. Pairs of opposite quadrants were filled with nematode growth medium (NGM) agar containing different concentrations of hbas#3. Animals were washed gently in an S-basal buffer and placed in the center of a four-quadrant plate with ascarosides in alternating quadrants, and scored after 15 minutes and 30 minutes. A chemotaxis index was calculated as: (the number of animals on ascaroside quadrants minus the number of animals on buffer quadrants)/(total number of animals).

C. elegans [6] = details: cited from earlier work
C. elegans [7] = details: in vivo; cited from earlier work
S. feltiae = assay: Ascaroside function (Table 12); assay type: in vivo, Steinernema feltiae; details: listed = has this function
Protocol: as §2

C. elegans males = assay: Attraction assay (long-range, point source); assay type: in vivo; details: 10 cm plate
Protocol: 10 cm standard chemotaxis plates were prepared (Bargmann et al., Cell 74:515-27 (1993), which is hereby incorporated by reference in its entirety) and stored at 4° C. until the day before use. Standard 1 cm-diameter copper pipes were sectioned into 1 cm-tall segments to use for the holding chambers. The females/hermaphrodites were isolated overnight, washed 3 times in M9 buffer, and then allowed to wander on a plate pre-conditioned with 50 uL of 1000× treptomycin for 2 hours to kill any bacteria that might produce a false positive attractant. The nematodes were then washed 3 times, and the supernatant from the last wash was placed in a copper chamber, as the control, 1 cm from the border of the 10 cm plate. The nematodes were suspended in M9 within the copper chamber, 1 cm from the border opposite the control chamber. After 6 hours, they were subsequently removed and replaced with 3 μL of 1M sodium azide. 100 C. elegans adult males were isolated overnight, washed several times in ddH2O, and placed at the center of the agar plate. After several hours, males paralyzed within 2 cm of each region were scored. The Chemotaxis Index (Bargmann et al., Cell 74:515-27 (1993), which is hereby incorporated by reference in its entirety) was then used to score male chemotaxis to either point source.

Panagrellus redivivus = assay: Ascaroside function (Table 12); assay type: in vivo; details: listed = has this function
Protocol: as §2

S. glaseri = assay: Ascaroside function (Table 12); assay type: in vivo; details: listed = has this function
Protocol: as §2

[8] = test system: Several of the tested nematode species; assay: Retention assay; assay type: in vivo; details: 1 nM, 1 μM and 1 mM tested
Protocol: OP50 E. coli was grown on a standard 5 cm agar plate (made with standard Nematode Growth Medium). The bacterial lawn was 16 mm in diameter and was grown overnight at 20° C. before being used in trials. Two 4 mm spots (0.6 μL) were placed on opposite sides of the bacterial lawn (using a transparent template to guide spot placement), and several minutes elapsed for the liquid to settle in before placing nematodes down on the assay. Recording began immediately upon worm placement. 0.6 μL of the control was placed on one side of the lawn, and 0.6 μL of the experimental cue was placed on the other side of the lawn, changing the location of the cue throughout trials between left/right and top/bottom to avoid bias.
Nematodes were isolated by gender at the L4 stage the day before being used in trials as developed adults. Worms were evenly divided and placed at two points equidistant from the foci of the scoring region. Trials were recorded for 20 minutes, and frames were collected for analysis at 1 frame per second. Results were averaged from at least three different trials. For every nematode species in this study, a different total number of worms (using water in both scoring regions) was tested to determine the minimum number of worms necessary for consistent unbiased results over a 20 minute trial. The total number of worms used in the multiple species assays depended on that species' optimal parameters. 10 worms were used for P. redivivus males and females, 20 worms were used for C. elegans males and O. dolichuridae males, and 14 worms were used for S. glaseri males. The Automated Software was used to compare worm occupancy in each scoring region over time, and the Chemotaxis Index (Bargmann et al., Cell 74:515-27 (1993), which is hereby incorporated by reference in its entirety) was adapted to score preference or avoidance to each ascaroside.
A video camera attached to the microscope produced a digital video stream, which was then analyzed. The ratio of the time the average worm spent in each region of interest was calculated for every trial. For ease of implementation, all worms in a single experiment were assumed to be roughly the same size. Thus worm pixels were counted instead of whole worms, allowing fractions of a worm in the region of interest to be taken into account. It also eliminated the need for a shape-based worm identification algorithm, and allowed each frame to be analyzed independently. A band-pass filter was applied to each frame to eliminate the effect of uneven lighting and also accentuate the worms against the background. The worm was then identified after thresholding the filtered image. Throughout each experiment, the locations and sizes of the regions of interest were known. Through the filtering described above, it is known which pixels are occupied by worms and which ones are not. Thus, the ratio of worm-pixels to all pixels inside the region of interest can be calculated to produce the worm-occupancy ratio. This calculation was done for every frame, giving a plot output of worm-occupancy ratio vs. time for each region.

## CC1OC(O[C@H](C)CCCCCCCCC(=O)O)C(O)CC1O (some centres unmarked) [ascr#18]
[1]
  predicted function in Heterorhabditis: act as dispersants and repellants
  Dispersal (of dauer larvae, infectious juveniles): ascr#18*
  Repel Females/Herm.: ascr#18*
[2]
  predicted function in Meloidogyne species: act as dispersants and repellants
  Dispersal (of dauer larvae, infectious juveniles): ascr#18*
  Repel Females/Herm.: ascr#18*

## C[C@H](CCCC/C=C/C(=O)O)O[C@@H]1O[C@@H](C)[C@H](OC(=O)c2ccc(O)cc2)C[C@H]1O [hbas#3, (8R)-(3′R-Hydroxy-5′R-(4-hydroxybenzoyloxy)-6′S-methyl-(2H)-tetrahydropyran-2′-yloxy)non-(2E)-enoic acid]
C. elegans [3]; dose dependent
  attraction of wild-type (N2) hermaphrodites: attracted
C. elegans [4]
  Attract Males: ([strong])
C. elegans [5]
  concentration as low as which strongly attracted C. elegans: 10 femtomolar

## CC1O[C@@H](O[C@H](C)CCCC/C=C/C(=O)O)[C@@H](O)C[C@H]1O (some centres unmarked) [ascr#3]
C. elegans [6]; from 1 μM concentration
  most active amount for attraction: ~1 pmol
C. elegans [6]; high dauer-inducing concentrations
  response of social and solitary hermaphrodites: strongly deter both social and solitary hermaphrodites
C. elegans [6]; in vivo
  response of males and hermaphrodites: strongly attracts males but repels hermaphrodites
C. elegans [7]
  dauer-inducing activity: individually promote dauer entry
S. feltiae
  Dispersal (of dauer larvae, infectious juveniles): ascr#3
C. elegans [4]
  Attract Males: ascr#3
  Promote Dauer Formation: ascr#3 ([strong])
  Repel Females/Herm.: ascr#3
C. elegans males
  amount as low as which elicited C. elegans male attraction: 5 femtomol
  male attraction from a distance: chemotax towards
Panagrellus redivivus
  Attract Males: ascr#3
S. glaseri
  Attract Males: ascr#3
[8]
  preference for ascaroside-conditioned areas: preferred areas conditioned

## C[C@H](CCCCCCCCCCC(=O)O)O[C@@H]1O[C@@H](C)[C@H](O)C[C@H]1O [ascr#22]
[1]
  predicted function in Heterorhabditis: act as dispersants and repellants
  Dispersal (of dauer larvae, infectious juveniles): ascr#22*
  Repel Females/Herm.: ascr#22*
[2]
  predicted function in Meloidogyne species: act as dispersants and repellants
  Dispersal (of dauer larvae, infectious juveniles): ascr#22*
  Repel Females/Herm.: ascr#22*

## CC1O[C@@H](OCCCCCCCCC(=O)O)C(O)C[C@H]1O (stereo partly drawn) [oscr#10, 9-(3′R,5′R-Dihydroxy-6′S-methyl-(2H)-tetrahydropyran-2′-yloxy)nonanoic acid]
Panagrellus redivivus
  Repel Males: oscr#10

## C[C@H](CC/C=C/C(=O)O)O[C@@H]1O[C@@H](C)[C@H](O)C[C@H]1O [ascr#7]
C. elegans [4]
  Attract Males: ascr#7
Panagrellus redivivus
  Attract Males: ascr#7
S. glaseri
  Attract Males: ascr#7
[8]
  preference for ascaroside-conditioned areas: preferred areas conditioned

## CC(=O)CC[C@@H](C)O[C@@H]1O[C@@H](C)[C@H](O)C[C@H]1O[C@@H]1O[C@H](CO)[C@@H](O)[C@H](O)[C@H]1O [ascr#4]
C. elegans [4]
  Promote Dauer Formation: ascr#4

## CC1OC(O[C@H](C)CCCCCCCCCC(=O)O)C(O)CC1O (some centres unmarked) [ascr#20]
[2]
  predicted function in Meloidogyne species: act as dispersants and repellants
  Dispersal (of dauer larvae, infectious juveniles): ascr#20*
  Repel Females/Herm.: ascr#20*

## CC1OC(O[C@H](C)CCCCCCCC(=O)O)C(O)CC1O (some centres unmarked) [ascr#16]
[2]
  predicted function in Meloidogyne species: act as dispersants and repellants
  Dispersal (of dauer larvae, infectious juveniles): ascr#16*
  Repel Females/Herm.: ascr#16*

## C[C@@H]1O[C@@H](OCCCCC(=O)O)[C@H](O)C[C@H]1O [oscr#9, 5-(3′R,5′R-Dihydroxy-6′S-methyl-(2H)-tetrahydropyran-2′-yloxy)pentanoic acid]
Panagrellus redivivus
  Attract Males: oscr#9

## C[C@H](CCCCC(=O)O)O[C@@H]1O[C@@H](C)[C@H](OC(=O)c2c[nH]c3ccccc23)C[C@H]1O [icas#1]
C. elegans [3]; 1 pmol (high concentrations), N2 hermaphrodites and him-5 males
  attraction in spot attraction assay: attractive to both C. elegans sexes; also recorded: attracted both males and hermaphrodites
C. elegans [4]
  Attract Females/Herm.: icas#1 ([strong])
  Attract Males: icas#1 ([strong])
